Measured values from US20040067891A1, “Therapeutic and/or preventive agents for diseases due to retinal ischemia” (priority 2000, published 2004).

How the values were obtained:
[1] = test system: retinal disorders due to transient retinal ischemia; test: rat model with retinal disorders due to transient retinal ischemia; assay type: in vivo; details: SD male rats
Method: Effects of the compound represented by the formula (I) (which will hereinafter be called “compound of the present invention”) on a rat model with retinal disorders due to transient retinal ischemia;
The model with retinal disorders due to transient retinal ischemia was prepared in accordance with the method described in Eur. J. Pharmaco., 350, 53-57 (1998).
After rats (SD male rats, 9-week-old (purchased from Charles River Japan, Inc.)) were weighed, pentobarbital sodium (Pentbarbital Na) (50-75 mg/kg) was intraperitoneally administered to anesthetize them. They were fixed to a platform, and kept warm at around 37° C. A perfusate for ophthalmic surgery (“BSS PLUS”; product of Santen Pharmaceutical) was hung so that the height from the position of the eyes of the rats would be 170 cm±5 cm. This height permitted application of pressure of about 130 mmHg. To the perfusate bottle was connected an extension tube and an injection needle (27 gauge×¾ inch) was attached to another end of the tube. […]
After the eyeballs were immobilized in a Davidson's fixative and a paraffin section was prepared at the cross-section passing through the optic papilla, it was dyed with hematoxylin and eosin (H.E.). […] The number of granule cells (GCL (ganglion cell layer), cell/mm) per 1 mm width of the optic papilla was counted by optical microscopic examination. […]

[2] = test system: rats; test: single-dose oral toxicity in rats; assay type: in vivo, rat; details: single-dose oral administration to rats
Method: The compound represented by the formula (I) or a non-toxic salt thereof has markedly low toxicity so that use of it as a pharmaceutical can be considered as safe enough. For example, the minimum lethal dose of the compound represented by the formula (I) by single-dose oral administration to rats was 2000 mg/kg or more.

CC(C)(C)OC(=O)N1CSC[C@H]1C(=O)N[C@@H](CSCC1CCCCC1)C(=O)NC1CCN(Cc2ccccc2)CC1 [Compound of the present invention, (2R)-N-(1-Benzylpiperidin-4-yl)-3-cyclohexylmethylthio-2-((4R)-3-t-butoxycarbonylthiazolidin-4-ylcarbonylamino)propanamide]
The number of granule cells (GCL) ([1]; 100 mg/5 mL/kg oral one hour before 45 min ischemia, counted one week after ischemia, per 1 mm width of the optic papilla): 49.2 cell/mm
inhibiting activity to the model of retinal disorders due to transient retinal ischemia ([1]; 100 mg/kg oral one hour before ischemia, from granule cell counts of Table 1): 34%
minimum lethal dose [2]: ≥ 2000 mg/kg
